≈ marks a conversion by molar mass, not a printed value. Like-named read-outs stand apart in the source and are kept apart here.
How the values were obtained:
KG-1a cells = assay: MTT cytotoxicity assay in KG-1a cells; type: cell-based, human; details: for Selectivity index (SI): IC50 for normal cells (PBMCs) / IC50 for cancer cells (KG-1a)
Experimental: (§1) MTT (3-(4,5-dimethylthiazol-2-yl)-2,5-diphenyltetrazolium bromide) assay was used to investigate the cytotoxicity of the test samples. KG-1a (1.5 × 10^4 cells/well), K562 (1.0 × 10^4 cells/well), PBMCs (1.0 × 10^5 cells/well), A549 (5.0 × 10^3 cells/well), MCF-7 (5.0 × 10^3 cells/well), and HeLa (5.0 × 10^3 cells/well) were seeded into a 96-well plate and incubated overnight at 37 °C with 5% CO2. […] After that, 5 mg/mL of MTT dye solution (Sigma-Aldrich, MA, USA) was added and incubated for 4 h. The produced formazan crystals were dissolved in 200 µL of DMSO (Sigma-Aldrich, MA, USA); then, the optical density (OD) was measured using an ELISA plate reader (Metertech, Taipei, Taiwan) at 578 nm with a reference wavelength of 630 nm. The percentage of surviving cells was calculated from the absorbance values of the test and control wells using the following Equation. 1 [drawing 1]
(§2) where ODsample is a mean absorbance in test well and ODvehicle control is a mean absorbance in VC well. The average percentage of surviving cells at each concentration obtained from triplicate experiments was plotted as a dose-response curve. Inhibitory concentration values at 50% growth (IC50 value) were defined as the lowest concentration of the test sample that inhibited cell growth by 50% compared to the untreated control.
(§3) To calculate IC50 values, a dose-response curve was fitted using non-linear regression analysis, as described in the GraphPad Prism guidelines (https://www.graphpad.com/support/faq/how-to-determine-an-icsub50sub/). The IC50 value was obtained by determining the point at which the curve intersected 50% growth inhibition. Non-linear regression graphs of the dose-response curve for each compound are provided in the supplementary data file (Figs. S1–S8).
where IC50 N is IC50 for normal cells and IC50 C is IC50 for cancer cells which were treated with the same compounds in both cells.

PBMCs = assay: MTT cytotoxicity assay in PBMCs; type: cell-based, human; details: Homo sapiens, PBMC
Experimental: PBMCs were isolated from blood samples using the Ficoll-Hypaque technique. Initially, 10–20 mL of blood was collected in a heparin tube at a ratio of 1:500 from a minimum of three healthy volunteers. Subsequently, the blood samples were diluted with Phosphate buffer saline (PBS), pH 7.4, at a ratio of 1:1 to reduce viscosity. Histopaque-1077 (Sigma-Aldrich, MA, USA) was then underlaid the diluted sample and centrifuged at 400×g for 30 min. The resulting PBMCs were collected, washed with PBS, pH 7.4, and prepared for further experiments.
as §1, §2, §3

RAW264.7 cells = assay: Cytotoxicity (IC20, cell viability) in RAW264.7 cells; type: cell-based; details: Mus musculus, RAW264.7, 48 h, read-out: IC20 RAW264.7 (inhibitory concentration at 20% growth)
Experimental: MTT (3-(4,5-dimethylthiazol-2-yl)-2,5-diphenyltetrazolium bromide) assay was used to investigate the cytotoxicity of the test samples. […] After that, 5 mg/mL of MTT dye solution (Sigma-Aldrich, MA, USA) was added and incubated for 4 h. The produced formazan crystals were dissolved in 200 μL of DMSO (Sigma-Aldrich, MA, USA); then, the optical density (OD) was measured using an ELISA plate reader ([…], Taiwan) at 578 nm with a reference wavelength of 630 nm. The percentage of surviving cells was calculated from the absorbance values of the test and control wells using the following Equation. 1 [drawing 1] […] Afterward, supernatants were collected, and the levels of TNF-α and NO were measured using the Mouse TNF alpha Uncoated ELISA Kit (InvitrogenTM, ThermoFisher Scientific, MA, USA) and the Total Nitric Oxide Assay Kit (InvitrogenTM, ThermoFisher Scientific, MA, USA), respectively, according to the manufacturer's instructions.

[1] = tested on: WT1 protein expression in KG-1a cells; assay: WT1 protein expression in KG-1a cells by Western blotting; type: cell-based, human; details: IC20 concentrations, 48 h, normalized to GAPDH
Experimental: (§4) KG-1a cells (1.5 × 10^5 cells/mL) were treated with compounds or extracts at different incubation times. Then, the cells were harvested and the whole proteins were extracted using a RIPA buffer (25 mM Tris-base, pH 7.6, 0.1% SDS, 1% Triton X-100, 150 mM NaCl, and 1 mM EDTA). The protein concentration was measured using the Folin-Lowry or Bradford assay. The whole protein lysates (30 µg/lane) were then separated through 7.5% SDS-PAGE under reducing conditions and then transferred to PVDF membranes. The membranes were blocked in 5% skim milk in PBS, pH 7.4 at RT for 2 h, then, target proteins were probed with specific primary antibodies (anti-WT1, anti-CD34, anti-GAPDH, anti-cleaved caspase-3, anti-cleaved PARP, anti-phospho-Akt, anti-phospho-c-Jun, anti-phospho-SAPK/JNK, and anti-YAP/TAZ) indicated in Table S10 which diluted at a ratio of 1:1,000 in PBS, pH 7.4 at RT for 2 h. After incubation, the membranes were rinsed 6 times with 0.1% Tween-20 (Sigma-Aldrich, MA, USA) in PBS, pH 7.4 (PBS-T), each time for 5 min. The reaction was followed by HRP-conjugated secondary antibody at 1:20,000 dilution in PBS, pH 7.4 at RT for 2 h, then, the membranes were rinsed 6 times for 5 min each with PBS-T. The proteins were shown using Immobilon Forte Western HRP substrate (Millipore, MA, USA). Finally, the protein band signal was quantified by using a scan densitometer (Bio-Rad Laboratories, CA, USA).

[2] = tested on: CD34 protein expression in KG-1a cells; assay: CD34 protein expression in KG-1a cells by Western blotting; type: cell-based, human; details: IC20 concentrations, 48 h, normalized to GAPDH
Experimental: as §4

[3] = Table S8, PBMCs, first replicate, read-out: IC50 value R1
[4] = Table S8, PBMCs, second replicate, read-out: IC50 value R2
[5] = Table S8, PBMCs, third replicate, read-out: IC50 value R3
[6] = active compounds and drugs, MTT, 48 h, read-out: IC50 PBMCs
[7] = Homo sapiens, KG-1a, Table S7, KG-1a, first replicate, read-out: IC50 value R1
[8] = Homo sapiens, KG-1a, Table S7, KG-1a, mean of R1-R3, read-out: IC50 value Mean
[9] = Homo sapiens, KG-1a, Table S7, KG-1a, second replicate, read-out: IC50 value R2
[10] = Homo sapiens, KG-1a, Table S7, KG-1a, third replicate, read-out: IC50 value R3
[11] = Table S8, PBMCs, mean of R1-R3, read-out: IC50 value Mean

SMILES	Selectivity index (SI) (KG-1a cells; 48 h)	IC50 (PBMCs; [3]) [µg/mL]	IC50 (PBMCs; [4]) [µg/mL]	IC50 (PBMCs; [5]) [µg/mL]	IC50 (PBMCs; [6]) [µg/mL]	IC50 (KG-1a cells; [7]) [µg/mL]	IC50 (KG-1a cells; [8]) [µg/mL]	IC50 (KG-1a cells; [9]) [µg/mL]	IC50 (KG-1a cells; [10]) [µg/mL]	IC50 (PBMCs; [11]) [µg/mL]	also measured
COc1cc(/C=C/C(O)=C/C(=O)/C=C/c2ccc(O)cc2)ccc1O [Demethoxycurcumin, demethoxycurcumin]	1.23	14.2 (≈ 41.8 µM)	13.6 (≈ 40.2 µM)	13.9 (≈ 41 µM)	13.9 ± 0.28 (≈ 41 µM)						IC50 (KG-1a cells; Homo sapiens, KG-1a, active compounds and drugs, MTT, 48 h, read-out: IC50 KG-1a): 11.3 ± 0.85 µg/mL (≈ 33.3 µM); IC20 (KG-1a cells; Homo sapiens, KG-1a, incubation for 48 h, read-out: IC20 KG-1a (inhibitory concentration at 20% growth)): 3.69 ± 0.53 µg/mL (≈ 10.9 µM); IC50 (KG-1a cells; Homo sapiens, Table S7, KG-1a, first replicate, read-out: IC50 value R1): 10.3 µg/mL (≈ 30.5 µM); IC50 (KG-1a cells; Homo sapiens, Table S7, KG-1a, second replicate, read-out: IC50 value R2): 11.6 µg/mL (≈ 34.4 µM); IC50 (KG-1a cells; Homo sapiens, Table S7, KG-1a, third replicate, read-out: IC50 value R3): 11.9 µg/mL (≈ 35.1 µM); Selectivity index (SI) (KG-1a cells; 48 h, listed as demethoxycurcumin): greater than 1; IC20 (PBMCs; incubation for 48 h, read-out: IC20 PBMCs (inhibitory concentration at 20% growth)): 7.95 ± 0.26 µg/mL (≈ 23.5 µM); IC20 (RAW264.7 cells): 5.94 ± 2.02 µg/mL (≈ 17.6 µM); decrease of WT1 protein level compared to VC [1]: 33.37 ± 3.87%; decrease of CD34 protein level compared to VC [2]: 32.79 ± 1.56%
CC(=O)[C@]1(O)Cc2c(O)c3c(c(O)c2[C@@H](O[C@H]2C[C@H](N)[C@H](O)[C@H](C)O2)C1)C(=O)c1ccccc1C3=O [Idarubicin, idarubicin, reference compound]		> 1	> 1	> 1		0.0259 (≈ 0.052 µM)	0.0279 (≈ 0.0561 µM)	0.0318 (≈ 0.0639 µM)	0.026 (≈ 0.0522 µM)	> 1	IC50 (KG-1a cells; Homo sapiens, KG-1a, 48 h, drugs, MTT, 48 h, read-out: IC50 KG-1a): 0.0313 ± 0.00504 µg/mL (≈ 0.0629 µM); IC50 (PBMCs; drugs, MTT, 48 h, read-out: IC50 PBMCs): > 1 µg/mL
Nc1ccn([C@@H]2O[C@H](CO)[C@@H](O)[C@@H]2O)c(=O)n1 [Cytarabine, cytarabine, reference compound]	> 1	> 100	> 100	> 100	> 100	> 100	> 100	> 100	> 100	> 100	IC50 (KG-1a cells; Homo sapiens, KG-1a, 48 h, active compounds and drugs, MTT, 48 h, read-out: IC50 KG-1a): > 100 µg/mL

Reference: article PMC11869560, “Anticancer and cancer preventive activities of shogaol and curcumin from Zingiberaceae family plants in KG-1a leukemic stem cells” (BMC Complementary Medicine and Therapies, 2025)
